Assay results as given in patent US6403648B2, “Alkylaminoalkyl-sulfonyl-terminated β-alanineamide amino-diol compounds for treatment of hypertension” (G. D. Searle & Co., priority 1993, dated 2002).

Target: T1, human renin (Homo sapiens, UniProt P00797)
T1 construct: purchased National Institute for Biological Standards, London
T1 sequence (P00797 67-406): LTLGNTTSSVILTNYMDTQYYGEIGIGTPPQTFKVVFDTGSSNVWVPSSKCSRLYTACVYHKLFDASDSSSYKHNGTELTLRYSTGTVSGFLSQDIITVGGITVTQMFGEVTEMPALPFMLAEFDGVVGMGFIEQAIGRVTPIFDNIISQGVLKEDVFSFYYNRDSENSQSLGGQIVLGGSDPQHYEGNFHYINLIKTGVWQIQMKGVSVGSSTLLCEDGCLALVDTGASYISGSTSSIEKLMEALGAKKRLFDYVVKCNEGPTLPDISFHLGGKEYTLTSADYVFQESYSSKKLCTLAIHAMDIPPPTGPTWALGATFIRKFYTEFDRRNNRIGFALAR
Experiment: Human renin inhibition in vitro
Type: biochemical
Conditions: human renin with human plasma as substrate, pH 7.4, 37° C., two hours; angiotensin I by radioimmunoassay; read-out: inhibit human renin in vitro, IC50
Procedure: Compounds of Formula I were evaluated as inhibitors of human renin in an in vitro assay, as follows: This human renin inhibition test has been previously described in detail [Papaioannou et al., Clinical and Experimental Hypertension, A7(9), 1243-1257 (1985)]. Human renin was obtained from the National Institute for Biological Standards, London. An incubation mixture was prepared containing the following components: in a total volume of 0.25 mL: 100 mM Tris-acetate buffer at pH 7.4, 25×10^−6 Goldblatt units of renin, 0.05 mL of plasma from human volunteers taking oral contraceptives, 6.0 mM Na-EDTA, 2.4 mM phenylmethyl sulfonyl fluoride, 1.5 mM 8-hydroxyquinoline, 0.4 mg/mL bovine serum albumin (BSA), and 0.024 mg/mL neomycin sulfate. This mixture was incubated for two hours at 37° C. in the presence or absence of renin inhibitors. The produced angiotensin I was determined by radioimmunoassay (New England Nuclear kit). Test compounds to be assayed were dissolved in DMSO and diluted with 100 mM Tris-acetate buffer at pH 7.4 containing 0.5% BSA to the appropriate concentration. The final concentration of organic solvent in the reaction mixture was less than 1%. Control incubations at 37° C. were used to correct for effects of organic solvent on renin activity. The in vitro enzymatic conversion of angiotensinogen to angiotensin I was inhibited by test compounds of the invention.

IC50: 44 nM
Compound: CC(C)C[C@H](O)[C@H](O)[C@H](CC1CCCCC1)NC(=O)[C@H](C)CNC(=O)C(Cc1ccccc1)CS(=O)(=O)CCN(C)C (stereo partly shown) [Example 1]
